Results from patent publication US7666882B2, “Anthranilamide insecticides” (E.I. du Pont de Nemours and Company, priority 2002, dated 2010).

Tested on: potato leafhopper (Empoasca fabae Harris)
Test: Test D: control of potato leafhopper through contact and/or systemic means on Longio bean plant
Format: in vivo
Settings: sprayed at 250 ppm, adults post-infested, 6 days, 19-21° C.
Description: Test compounds were formulated using a solution containing 10% acetone, 90% water and 300 ppm X-77® Spreader Lo-Foam Formula non-ionic surfactant containing alkylarylpolyoxyethylene, free fatty acids, glycols and isopropanol (Loveland Industries, Inc.). The formulated compounds were applied in 1 mL of liquid through a SUJ2 atomizer nozzle with ⅛ JJ custom body (Spraying Systems Co.) positioned 1.27 cm (0.5 inches) above the top of each test unit. All experimental compounds in this screen were sprayed at 250 ppm, replicated three times. After spraying of the formulated test compound, each test unit was allowed to dry for 1 hour and then a black, screened cap was placed on top. The test units were held for 6 days in a growth chamber at 19-21° C. and 50-70% relative humidity. Each test unit was then visually assessed for insect mortality.
For evaluating control of potato leafhopper (Empoasca fabae Harris) through contact and/or systemic means, the test unit consisted of a small open container with a 5-6 day old Longio bean plant (primary leaves emerged) inside. White sand was added to the top of the soil and one of the primary leaves was excised prior to application. Test compounds were formulated and sprayed at 250 ppm and replicated three times as described for Test C. […] Each test unit was then visually assessed for insect mortality.

## CNC(=O)c1cc(Cl)cc(Cl)c1NC(=O)c1cc(OCC#N)nn1-c1ncccc1Cl [Compound 11]
  insect mortality: at least 80%
